Results on 13 compounds are retold here after ChEMBL document CHEMBL1629456, “ApoA-I mimetic peptides promote pre-β HDL formation in vivo causing remodeling of HDL and triglyceride accumulation at higher dose” (Bioorg Med Chem, 2010).

Each structure is given as a SMILES string. Where a SMILES comes first, the peptide text is derived from it. [ ]: non-standard residue; d: D form. Ala(5-hexenyl) = C=CCCCCC[C@H](N)C(=O)O; dNle(6-vinyl) = C=CCCCC[C@@H](N)C(=O)O; Gly(octyl) = CCCCCCCC[C@H](N)C(=O)O

In the experiment the target is Phospholipid-transporting ATPase ABCA1 (Mus musculus, UniProt P41233). Kind of experiment: Induction of ABCA1-mediated [3H]cholesterol efflux in mouse RAW 264.7 macrophages after 24 hrs.
Phospholipid-transporting ATPase ABCA1, sequence (P41233 whole entry): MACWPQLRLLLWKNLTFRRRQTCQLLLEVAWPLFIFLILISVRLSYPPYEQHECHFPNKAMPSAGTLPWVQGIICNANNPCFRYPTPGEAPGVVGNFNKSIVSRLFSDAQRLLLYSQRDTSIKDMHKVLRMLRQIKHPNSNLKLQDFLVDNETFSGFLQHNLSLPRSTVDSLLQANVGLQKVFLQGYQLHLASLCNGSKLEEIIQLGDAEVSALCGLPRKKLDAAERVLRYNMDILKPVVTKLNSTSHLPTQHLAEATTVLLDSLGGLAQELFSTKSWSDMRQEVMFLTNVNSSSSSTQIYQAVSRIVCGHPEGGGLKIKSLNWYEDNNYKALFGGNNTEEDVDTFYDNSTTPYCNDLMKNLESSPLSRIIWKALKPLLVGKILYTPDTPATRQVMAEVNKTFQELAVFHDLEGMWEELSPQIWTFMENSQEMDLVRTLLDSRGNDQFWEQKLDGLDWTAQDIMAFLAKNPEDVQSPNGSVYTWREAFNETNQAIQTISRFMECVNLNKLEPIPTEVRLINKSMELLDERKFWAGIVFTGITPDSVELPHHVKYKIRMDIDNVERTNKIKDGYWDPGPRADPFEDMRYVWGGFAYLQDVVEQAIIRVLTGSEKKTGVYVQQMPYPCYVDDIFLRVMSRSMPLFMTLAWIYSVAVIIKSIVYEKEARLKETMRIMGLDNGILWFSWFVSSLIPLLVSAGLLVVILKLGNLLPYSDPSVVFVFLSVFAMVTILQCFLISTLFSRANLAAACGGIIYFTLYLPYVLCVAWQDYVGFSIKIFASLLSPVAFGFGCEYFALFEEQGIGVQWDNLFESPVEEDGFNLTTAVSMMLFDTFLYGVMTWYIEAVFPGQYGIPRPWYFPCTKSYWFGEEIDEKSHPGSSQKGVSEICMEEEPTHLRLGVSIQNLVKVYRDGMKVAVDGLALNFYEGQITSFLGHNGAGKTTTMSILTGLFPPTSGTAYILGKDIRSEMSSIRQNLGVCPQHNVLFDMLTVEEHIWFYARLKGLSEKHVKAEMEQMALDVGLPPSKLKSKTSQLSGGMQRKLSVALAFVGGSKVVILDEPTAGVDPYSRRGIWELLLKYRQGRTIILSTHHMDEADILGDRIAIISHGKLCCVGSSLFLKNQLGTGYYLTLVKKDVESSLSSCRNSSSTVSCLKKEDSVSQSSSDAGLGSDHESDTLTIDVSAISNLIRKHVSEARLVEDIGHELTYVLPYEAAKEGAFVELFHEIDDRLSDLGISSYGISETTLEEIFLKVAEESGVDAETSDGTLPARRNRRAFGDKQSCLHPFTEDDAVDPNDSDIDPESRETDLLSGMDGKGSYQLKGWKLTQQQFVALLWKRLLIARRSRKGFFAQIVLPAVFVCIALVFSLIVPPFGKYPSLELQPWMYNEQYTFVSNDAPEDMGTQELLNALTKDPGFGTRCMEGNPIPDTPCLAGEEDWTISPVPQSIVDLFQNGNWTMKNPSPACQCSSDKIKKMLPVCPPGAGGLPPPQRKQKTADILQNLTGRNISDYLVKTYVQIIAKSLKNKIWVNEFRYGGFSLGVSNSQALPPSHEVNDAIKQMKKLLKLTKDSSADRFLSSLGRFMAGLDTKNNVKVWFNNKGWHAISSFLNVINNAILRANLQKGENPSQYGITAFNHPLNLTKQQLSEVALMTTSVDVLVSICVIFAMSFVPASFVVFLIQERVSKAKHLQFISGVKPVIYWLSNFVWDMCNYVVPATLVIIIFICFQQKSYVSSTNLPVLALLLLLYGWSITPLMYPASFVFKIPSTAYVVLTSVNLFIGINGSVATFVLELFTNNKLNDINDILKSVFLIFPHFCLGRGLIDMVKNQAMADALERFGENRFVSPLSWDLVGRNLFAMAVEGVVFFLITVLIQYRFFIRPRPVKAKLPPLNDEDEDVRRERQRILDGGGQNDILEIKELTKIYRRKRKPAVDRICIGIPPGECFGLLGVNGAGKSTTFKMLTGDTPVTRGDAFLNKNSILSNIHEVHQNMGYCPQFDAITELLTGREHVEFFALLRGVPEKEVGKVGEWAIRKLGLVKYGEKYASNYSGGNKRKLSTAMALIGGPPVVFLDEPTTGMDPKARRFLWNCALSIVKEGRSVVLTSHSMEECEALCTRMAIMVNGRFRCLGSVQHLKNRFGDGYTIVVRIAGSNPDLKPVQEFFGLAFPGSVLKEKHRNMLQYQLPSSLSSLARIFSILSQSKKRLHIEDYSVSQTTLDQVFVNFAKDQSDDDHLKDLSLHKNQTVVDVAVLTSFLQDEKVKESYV
On to `C=CCCCC[C@@H](NC(=O)[C@@H]1CCCN1C(C)=O)C(=O)N[C@@H](CC(C)C)C(=O)N[C@@H](CC(=O)O)C(=O)N[C@@H](CCC(=O)O)C(=O)N[C@@H](Cc1ccccc1)C(=O)N[C@@H](CCCN=C(N)N)C(=O)N[C@@H](CCC(=O)O)C(=O)N[C@@H](CCCCN)C(=O)N[C@@H](CC(C)C)C(=O)N[C@@H](CC(N)=O)C(=O)N[C@@H](CCC(=O)O)C(=O)N[C@@H](CCC(=O)O)C(=O)N[C@@H](CC(C)C)C(=O)N[C@@H](CCC(=O)O)C(=O)N[C@@H](C)C(=O)N[C@@H](CC(C)C)C(=O)N[C@@H](CCCCN)C(=O)N[C@@H](CCC(N)=O)C(=O)N[C@@H](CCCCN)C(=O)N[C@@H](CC(C)C)C(=O)N[C@@H](CCCCN)C(N)=O`, for which the 50% effective concentration (EC50) was over 100 µM.
Under `C=CCCCCC[C@H](NC(=O)[C@H](CCC(N)=O)NC(=O)[C@H](CCCCN)NC(=O)[C@H](CC(C)C)NC(=O)[C@H](C)NC(=O)[C@H](CCC(=O)O)NC(=O)[C@H](CC(C)C)NC(=O)[C@H](CCCCCC=C)NC(=O)[C@H](CCC(=O)O)NC(=O)[C@H](CC(N)=O)NC(=O)[C@H](CC(C)C)NC(=O)[C@H](CCCCN)NC(=O)[C@H](CCC(=O)O)NC(=O)[C@H](CCCNC(=N)N)NC(=O)[C@H](CCCCCC=C)NC(=O)[C@H](CCC(=O)O)NC(=O)[C@H](CC(=O)O)NC(=O)[C@H](CC(C)C)NC(=O)[C@@H](NC(=O)[C@@H]1CCCN1C(C)=O)C(C)C)C(=O)N[C@@H](CC(C)C)C(=O)N[C@@H](CCCCN)C(N)=O` (Ac-PVLDE[Ala(5-hexenyl)]REKLNE[Ala(5-hexenyl)]LEALKQ[Ala(5-hexenyl)]LK-NH2) stands 1.8 µM; under `C=CCCCC[C@H](NC(=O)[C@@H](NC(=O)[C@@H]1CCCN1C(C)=O)C(C)C)C(=O)N[C@@H](CC(=O)O)C(=O)N[C@@H](CCC(=O)O)C(=O)N[C@@H](Cc1ccccc1)C(=O)N[C@@H](CCCNC(=N)N)C(=O)N[C@@H](CCC(=O)O)C(=O)N[C@@H](CCCCN)C(=O)N[C@@H](CC(C)C)C(=O)N[C@@H](CC(N)=O)C(=O)N[C@@H](CCC(=O)O)C(=O)N[C@@H](CCC(=O)O)C(=O)N[C@@H](CC(C)C)C(=O)N[C@@H](CCC(=O)O)C(=O)N[C@@H](C)C(=O)N[C@@H](CC(C)C)C(=O)N[C@@H](CCCCN)C(=O)N[C@@H](CCC(N)=O)C(=O)N[C@@H](CCCCN)C(=O)N[C@@H](CC(C)C)C(=O)N[C@@H](CCCCN)C(N)=O`, over 100 µM; under `C=CCCCC[C@@H](NC(=O)[C@H](CCC(=O)O)NC(=O)[C@H](CCCNC(=N)N)NC(=O)[C@H](Cc1ccccc1)NC(=O)[C@H](CCC(=O)O)NC(=O)[C@H](CC(=O)O)NC(=O)[C@H](CC(C)C)NC(=O)[C@@H](NC(=O)[C@@H]1CCCN1C(C)=O)C(C)C)C(=O)N[C@@H](CC(C)C)C(=O)N[C@@H](CC(N)=O)C(=O)N[C@@H](CCC(=O)O)C(=O)N[C@@H](CCC(=O)O)C(=O)N[C@@H](CC(C)C)C(=O)N[C@@H](CCC(=O)O)C(=O)N[C@@H](C)C(=O)N[C@@H](CC(C)C)C(=O)N[C@@H](CCCCN)C(=O)N[C@@H](CCC(N)=O)C(=O)N[C@@H](CCCCN)C(=O)N[C@@H](CC(C)C)C(=O)N[C@@H](CCCCN)C(N)=O`, over 100 µM.
With `C=CCCCCC[C@@H](NC(=O)[C@H](CCC(N)=O)NC(=O)[C@H](CCCCN)NC(=O)[C@H](CC(C)C)NC(=O)[C@H](C)NC(=O)[C@H](CCC(=O)O)NC(=O)[C@H](CC(C)C)NC(=O)[C@H](CCC(=O)O)NC(=O)[C@H](CCC(=O)O)NC(=O)[C@H](CC(N)=O)NC(=O)[C@H](CC(C)C)NC(=O)[C@H](CCCCN)NC(=O)[C@H](CCC(=O)O)NC(=O)[C@H](CCCN=C(N)N)NC(=O)[C@H](Cc1ccccc1)NC(=O)[C@H](CCC(=O)O)NC(=O)[C@H](CC(=O)O)NC(=O)[C@H](CC(C)C)NC(=O)[C@@H](NC(=O)[C@@H]1CCCN1C(C)=O)C(C)C)C(=O)N[C@@H](CC(C)C)C(=O)N[C@@H](CCCCN)C(N)=O`, the EC50 is over 100 µM.
As for `C=CCCCCC[C@H](NC(=O)[C@H](CCC(=O)O)NC(=O)[C@H](CC(N)=O)NC(=O)[C@H](CC(C)C)NC(=O)[C@H](CCCCN)NC(=O)[C@H](CCC(=O)O)NC(=O)[C@H](CCCN=C(N)N)NC(=O)[C@H](CCCCCC=C)NC(=O)[C@H](CCC(=O)O)NC(=O)[C@H](CC(=O)O)NC(=O)[C@H](CC(C)C)NC(=O)[C@H](CCCCCC=C)NC(=O)[C@@H]1CCCN1C(C)=O)C(=O)N[C@@H](CC(C)C)C(=O)N[C@@H](CCC(=O)O)C(=O)N[C@@H](C)C(=O)N[C@@H](CC(C)C)C(=O)N[C@@H](CCCCN)C(=O)N[C@@H](CCC(N)=O)C(=O)N[C@@H](CCCCN)C(=O)N[C@@H](CC(C)C)C(=O)N[C@@H](CCCCN)C(N)=O` (Ac-P[Ala(5-hexenyl)]LDE[Ala(5-hexenyl)]REKLNE[Ala(5-hexenyl)]LEALKQKLK-NH2), a half-maximal response (EC50) required 1.9 µM.
`CCCCCCCC[C@H](NC(=O)[C@H](CCC(=O)O)NC(=O)[C@H](CC(N)=O)NC(=O)[C@H](CC(C)C)NC(=O)[C@H](CCCCN)NC(=O)[C@H](CCC(=O)O)NC(=O)[C@H](CCCNC(=N)N)NC(=O)[C@H](CCCCCCCC)NC(=O)[C@H](CCC(=O)O)NC(=O)[C@H](CC(=O)O)NC(=O)[C@H](CC(C)C)NC(=O)[C@@H](NC(=O)[C@@H]1CCCN1C(C)=O)C(C)C)C(=O)N[C@@H](CC(C)C)C(=O)N[C@@H](CCC(=O)O)C(=O)N[C@@H](C)C(=O)N[C@@H](CC(C)C)C(=O)N[C@@H](CCCCN)C(=O)N[C@@H](CCC(N)=O)C(=O)N[C@@H](CCCCN)C(=O)N[C@@H](CC(C)C)C(=O)N[C@@H](CCCCN)C(N)=O` (Ac-PVLDE[Gly(octyl)]REKLNE[Gly(octyl)]LEALKQKLK-NH2) registered an EC50 of 0.6 µM.
For `C=CCCCC[C@@H](NC(=O)[C@H](CCC(=O)O)NC(=O)[C@H](CC(N)=O)NC(=O)[C@H](CC(C)C)NC(=O)[C@H](CCCCN)NC(=O)[C@H](CCC(=O)O)NC(=O)[C@H](CCCN=C(N)N)NC(=O)[C@H](Cc1ccccc1)NC(=O)[C@H](CCC(=O)O)NC(=O)[C@H](CC(=O)O)NC(=O)[C@H](CC(C)C)NC(=O)[C@@H](NC(=O)[C@@H]1CCCN1C(C)=O)C(C)C)C(=O)N[C@@H](CC(C)C)C(=O)N[C@@H](CCC(=O)O)C(=O)N[C@@H](C)C(=O)N[C@@H](CC(C)C)C(=O)N[C@@H](CCCCN)C(=O)N[C@@H](CCC(N)=O)C(=O)N[C@@H](CCCCN)C(=O)N[C@@H](CC(C)C)C(=O)N[C@@H](CCCCN)C(N)=O` (Ac-PVLDEFREKLNE[dNle(6-vinyl)]LEALKQKLK-NH2) the value was 31 µM; for `C=CCCCCC[C@@H](NC(=O)[C@H](CCCCN)NC(=O)[C@H](CCC(=O)O)NC(=O)[C@H](CCCN=C(N)N)NC(=O)[C@H](Cc1ccccc1)NC(=O)[C@H](CCC(=O)O)NC(=O)[C@H](CC(=O)O)NC(=O)[C@H](CC(C)C)NC(=O)[C@@H](NC(=O)[C@@H]1CCCN1C(C)=O)C(C)C)C(=O)N[C@@H](CC(N)=O)C(=O)N[C@@H](CCC(=O)O)C(=O)N[C@@H](CCC(=O)O)C(=O)N[C@@H](CC(C)C)C(=O)N[C@@H](CCC(=O)O)C(=O)N[C@@H](C)C(=O)N[C@@H](CC(C)C)C(=O)N[C@@H](CCCCN)C(=O)N[C@@H](CCC(N)=O)C(=O)N[C@@H](CCCCN)C(=O)N[C@@H](CC(C)C)C(=O)N[C@@H](CCCCN)C(N)=O`, over 100 µM.
For `C=CCCCC[C@@H](NC(=O)[C@H](CCCCN)NC(=O)[C@H](CCC(N)=O)NC(=O)[C@H](CCCCN)NC(=O)[C@H](CC(C)C)NC(=O)[C@H](C)NC(=O)[C@H](CCC(=O)O)NC(=O)[C@H](CC(C)C)NC(=O)[C@H](CCC(=O)O)NC(=O)[C@H](CCC(=O)O)NC(=O)[C@H](CC(N)=O)NC(=O)[C@H](CC(C)C)NC(=O)[C@H](CCCCN)NC(=O)[C@H](CCC(=O)O)NC(=O)[C@H](CCCNC(=N)N)NC(=O)[C@H](Cc1ccccc1)NC(=O)[C@H](CCC(=O)O)NC(=O)[C@H](CC(=O)O)NC(=O)[C@H](CC(C)C)NC(=O)[C@@H](NC(=O)[C@@H]1CCCN1C(C)=O)C(C)C)C(=O)N[C@@H](CCCCN)C(N)=O` the value was over 100 µM.
Consider `C=CCCCC[C@H](NC(=O)[C@H](CCC(=O)O)NC(=O)[C@H](CCCN=C(N)N)NC(=O)[C@H](Cc1ccccc1)NC(=O)[C@H](CCC(=O)O)NC(=O)[C@H](CC(=O)O)NC(=O)[C@H](CC(C)C)NC(=O)[C@@H](NC(=O)[C@@H]1CCCN1C(C)=O)C(C)C)C(=O)N[C@@H](CC(C)C)C(=O)N[C@@H](CC(N)=O)C(=O)N[C@@H](CCC(=O)O)C(=O)N[C@@H](CCC(=O)O)C(=O)N[C@@H](CC(C)C)C(=O)N[C@@H](CCC(=O)O)C(=O)N[C@@H](C)C(=O)N[C@@H](CC(C)C)C(=O)N[C@@H](CCCCN)C(=O)N[C@@H](CCC(N)=O)C(=O)N[C@@H](CCCCN)C(=O)N[C@@H](CC(C)C)C(=O)N[C@@H](CCCCN)C(N)=O`, for which the concentration giving a half-maximal response (EC50) was over 100 µM.
Under `C=CCCCC[C@@H](NC(=O)[C@@H](NC(=O)[C@@H]1CCCN1C(C)=O)C(C)C)C(=O)N[C@@H](CC(=O)O)C(=O)N[C@@H](CCC(=O)O)C(=O)N[C@@H](Cc1ccccc1)C(=O)N[C@@H](CCCNC(=N)N)C(=O)N[C@@H](CCC(=O)O)C(=O)N[C@@H](CCCCN)C(=O)N[C@@H](CC(C)C)C(=O)N[C@@H](CC(N)=O)C(=O)N[C@@H](CCC(=O)O)C(=O)N[C@@H](CCC(=O)O)C(=O)N[C@@H](CC(C)C)C(=O)N[C@@H](CCC(=O)O)C(=O)N[C@@H](C)C(=O)N[C@@H](CC(C)C)C(=O)N[C@@H](CCCCN)C(=O)N[C@@H](CCC(N)=O)C(=O)N[C@@H](CCCCN)C(=O)N[C@@H](CC(C)C)C(=O)N[C@@H](CCCCN)C(N)=O` stands over 100 µM; under `C=CCCCC[C@H](NC(=O)[C@@H]1CCCN1C(C)=O)C(=O)N[C@@H](CC(C)C)C(=O)N[C@@H](CC(=O)O)C(=O)N[C@@H](CCC(=O)O)C(=O)N[C@@H](Cc1ccccc1)C(=O)N[C@@H](CCCN=C(N)N)C(=O)N[C@@H](CCC(=O)O)C(=O)N[C@@H](CCCCN)C(=O)N[C@@H](CC(C)C)C(=O)N[C@@H](CC(N)=O)C(=O)N[C@@H](CCC(=O)O)C(=O)N[C@@H](CCC(=O)O)C(=O)N[C@@H](CC(C)C)C(=O)N[C@@H](CCC(=O)O)C(=O)N[C@@H](C)C(=O)N[C@@H](CC(C)C)C(=O)N[C@@H](CCCCN)C(=O)N[C@@H](CCC(N)=O)C(=O)N[C@@H](CCCCN)C(=O)N[C@@H](CC(C)C)C(=O)N[C@@H](CCCCN)C(N)=O`, over 100 µM.
